Reference: paper PMC7069976, “Improved secretion of glycoproteins using an N-glycan-restricted passport sequence tag recognized by cargo receptor” (Nature Communications, 2020)

Experiments:
Assay type in all cases: cell-based
[1] = test system: ERGL KO HCT116 cells; assay: EPO secretion level (ELISA) from ERGL KO HCT116 cells
From the text: (§1) The guide RNAs (gRNAs) flanking the target enhancer regions for ERGIC-53 and MCFD2 were designed using ToolGen’s dRGEN synthesis service (Seoul, South Korea). The target DNA sequences of the gRNAs used in the present study were as follows: for MCFD2 deletion, […], and for ERGIC-53 deletion, […]. The gRNA expression plasmids (pRGEN-U6-sgRNA) were purchased from ToolGen. To generate the KO cells of MCFD2 or ERGIC-53, individual gRNA plasmids and a plasmid-expressing Cas9-green fluorescent protein (GFP) (Addgene, catalog #44719) were transiently transfected into HCT116 cells, which are diploid cells suitable for genome editing using the CRISPR/Cas9 method, in a six-well plate using polyethylenimine “Max” (Polysciences Inc., Warrington, PA) and a Cas9:gRNA molar ratio of 1:5 as described previously. At 48 h post transfection, cells with high GFP expression were identified using fluorescence-activated cell sorting with the BD FACSAria II cell sorter (BD Biosciences, San Jose, CA). For knocking out ERGL in the wild-type and ERGIC-53-KO cells, the Guide-it CRISPR/Cas9 System (green/red) (Takara Bio Inc., Kusatsu, Japan) was used for the cloning and expression of target single gRNAs, whose target ERGL DNA sequences were […] and […]. The two constructed pGuide-it Vectors (green and red) were transiently transfected into HCT116 cells. At 48 h post transfection, cells with high ZsGreen1 and tdTomato expression were identified using fluorescence-activated cell sorting. Sorted cells were plated into individual wells of a 96-well plate and then re-plated as single cells in 6 cm dishes. The deletions in the clones were confirmed by polymerase chain reaction and sequencing analysis (Supplementary Figs. 8, 9, 10, and 11).
(§2) For expression of the FVIII and FV full-length and deletion mutant proteins in mammalian cells, the codon-optimized FVIII and FV genes were inserted into the p3XFLAG-CMV-14 Expression Vector and p3XFLAG-CMV-9 Expression Vector, respectively (Sigma-Aldrich, St. Louis, MO). For the expression of the wild-type and mutated AAT, EPO, and sFγRIIIa in mammalian cells, the corresponding genes (purchased from FASMAC Co., Ltd., Atsuki, Japan) were inserted into the p3XFLAG-CMV-9 Expression Vector (Sigma-Aldrich). […]
(§3) The secreted levels of FVIII and FV antigens in the culture medium were determined with an sandwich enzyme-linked immunosorbent assay (ELISA) method using the VisuLize FVIII Antigen Kit (Affinity Biologicals Inc., Ancaster, ON) and the Asssay Max™ Human Factor V ELISA Kit (ASSAYPRO, MO), respectively. The secreted levels of AAT and EPO antigens in the culture medium were determined with an ELASA method using the anti-AAT antibody (Agilent, Santa Clara, CA) and anti-Flag M2 antibody (Sigma-Aldrich), respectively.

[2] = test system: ΔMCFD2 HCT116 cells; assay: EPO secretion level (ELISA) from MCFD2 KO HCT116 cells
From the text: as §1, §2, §3

[3] = test system: HCT116 cells; assay: Intracellular accumulation, western blotting of cell lysates; conditions: anti-flag western blot, vs EPO-motif
Description: Western blots were performed according to methods in previous studies[29],[30]. At 72 h post transfection, the EPO and sFγRIII recombinant proteins were purified with anti-Flag M2 Affinity Gel (Sigma-Aldrich). The gel was washed twice with phosphate-buffered saline, and proteins were eluted with the 3× FLAG tag peptide (Sigma-Aldrich). The purified proteins were subjected to 3–10% gradient sodium dodecyl sulfate-polyacrylamide gel electrophoresis and subsequently transferred to a polyvinylidene difluoride membrane (Millipore, Billerica, MA). After blocking with Blocking One solution (Nacalai Tesque, Kyoto, Japan), the membranes were incubated with monoclonal mouse anti-Flag M2 (Sigma-Aldrich, F1804), anti-human LMAN1 (ERGIC-53) (Proteintech, Tokyo, Japan, 13364), anti-human SDNSF/MCFD2 (R&D System, Minneapolis, MN, MAB2357), and anti-β-actin (Sigma-Aldrich, A2228) antibodies, and then with horseradish peroxidase (HRP)-conjugated secondary antibody [anti-mouse IgG antibody-HRP, GE Healthcare (Piscataway, NJ) and anti-rabbit Ig antibody-HRP, Cell Signaling Technology (Danvers, MA)] in 20 mM Tris-HCl (pH 7.6) containing 150 mM NaCl and 0.05% Tween-20. The protein bands were visualized with Immobilon Western Chemiluminescent HRP substrate solution (Millipore).

[4] = average, n = 3, EPO in wild type = 1

EPO: recombinant Flag-tagged erythropoietin without motif (Fig. 5 prints EPO for mScarlet-I-EPO)
EPO secretion level (Figure 4D), average [1, 4]: 0.7808
EPO secretion level (Figure 4D) ([1]; replicate 1): 0.6104
EPO secretion level (Figure 4D) ([1]; replicate 2): 0.9026
EPO secretion level (Figure 4D) ([1]; replicate 3): 0.8293
EPO secretion level (Figure 4D), average [2, 4]: 0.9208
EPO secretion level (Figure 4D) ([2]; replicate 1): 0.5997
EPO secretion level (Figure 4D) ([2]; replicate 2): 1.0013
EPO secretion level (Figure 4D) ([2]; replicate 3): 1.162
intracellular accumulation [3]: a higher level of accumulation in the cells
